Results taken from patent US20070172957A1, “Methods of identifying anti-inflammatory macrolides” (TAISHO PHARMACEUTICAL CO., LTD., priority 2004, published 2007).

System: genes predictive for the anti-inflammatory macrolide effect
Assay: Genes statistically predictive of Clari response: differentially expressed with Clari but not the inactive macrolides MAA or Josa (Appendix E)
Type: cell-based
Conditions: pooled group mean
From the text: In the case of the above-mentioned (i) related to arachidonic acid biosynthesis, specifically, methods of the embodiment involve assaying whether a test macrolide alters biosynthesis of arachidonic acid, alters the expression or activities of enzymes involved in the biosynthesis or activation of arachidonic acid (e.g., arachidonic acid CoA synthetase, delta-6 desaturase, fatty acid elongase, and delta-5 desaturase, AA-related genes in Tables 2 and 3), or alters the expression of genes identified as predictive for the anti-inflammatory macrolide effect (Appendix E). Assays in which arachidonic acid or gene expression or enzymatic activity is detected can be carried out after contacting a cell with a test macrolide. Any cell line that secretes prostaglandin or produces arachidonic acid can be used. Epithelial and macrophages lines (e.g., A549 or THP-1) are suitable for this purpose; other cell lines can be identified by carrying out assays such as those described in the specific Examples, below. Alternatively, screening assays can be carried out after adding a test macrolide to an in vitro cell system (e.g., a cellular extract or liver microsome preparation) or an in vitro enzyme assay system.

CC[C@H]1OC(=O)[C@H](C)[C@@H](O[C@H]2C[C@@](C)(OC)[C@@H](O)[C@H](C)O2)[C@H](C)[C@@H](O[C@@H]2O[C@H](C)C[C@H](N(C)C)[C@H]2O)[C@](C)(O)C[C@@H](C)/C(=N\OCOCCOC)[C@H](C)[C@@H](O)[C@]1(C)O [roxithromycin]
mean group, FLJ20699 (SpotID 46633): 0.81
mean group, ARHGAP1 (SpotID 46648): 0.96
mean group, KIAA1172 (SpotID 46679): 0.92
mean group, MKNK2 (SpotID 46825): 1.12
mean group, ARHGDIA (SpotID 46843): 0.93
mean group, CDIPT (SpotID 46896): 1.01
mean group, PACE (SpotID 46923): 1.09
mean group, METAP2 (SpotID 46935): 0.89
mean group, EREG (SpotID 46988): 0.85
mean group, C2orf3 (SpotID 47034): 0.90
mean group, NUBP1 (SpotID 47241): 0.95
mean group, EPOR (SpotID 47314): 1.14
mean group, ADAM11 (SpotID 47352): 1.10
mean group, P4HB (SpotID 47366): 1.18
mean group, CETN2 (SpotID 47415): 1.18
mean group, SNK (SpotID 47418): 0.82
mean group, GCS1 (SpotID 47432): 1.02
mean group, DCTN1 (SpotID 47439): 0.95
mean group, RANBP1 (SpotID 47446): 0.89
mean group, MSH3 (SpotID 47504): 0.99
mean group, SERPINA1 (SpotID 47522): 0.95
mean group, TRAP1 (SpotID 47622): 0.94
mean group, NR4A2 (SpotID 47679): 1.14
mean group, HSPA9B (SpotID 47694): 0.95
mean group, NBS1 (SpotID 47754): 0.97
mean group, POLA (SpotID 47776): 0.89
mean group, GOT1 (SpotID 47802): 0.94
mean group, ENTPD6 (SpotID 47811): 1.06
mean group, SSI-1 (SpotID 47846): 0.93
mean group, PRLR (SpotID 47850): 0.99
mean group, P4HA1 (SpotID 47935): 1.18
mean group, DNASE1L1 (SpotID 47950): 1.03
mean group, USF2 (SpotID 47973): 1.05
mean group, THBS1 (SpotID 47987): 0.71
mean group, RPN2 (SpotID 47988): 1.02
mean group, CUTL1 (SpotID 48004): 1.02
mean group, SRF (SpotID 48026): 1.03
mean group, FRDA (SpotID 48137): 0.90
mean group, SFRS7 (SpotID 48149): 0.88
mean group, ZAP3 (SpotID 48160): 0.95
mean group, MAPK12 (SpotID 48233): 1.03
mean group, GRB2 (SpotID 48266): 1.04
mean group, GCN5L1 (SpotID 48301): 1.01
mean group, CCT3 (SpotID 48345): 1.03
mean group, MAPK9 (SpotID 48365): 0.94
mean group, MGEA5 (SpotID 48411): 1.13
mean group, SERPINB1 (SpotID 48415): 1.28
mean group, DDC (SpotID 48456): 0.97
mean group, BARD1 (SpotID 48461): 0.86
mean group, SpotID 48486 (SpotID 48486 (gene symbol not given)): 0.94
mean group, RPL13A (SpotID 48500): 0.92
mean group, ARAF1 (SpotID 48521): 0.98
mean group, APLP2 (SpotID 48530): 1.10
mean group, NFE2L1 (SpotID 48557): 1.06
mean group, XBP1 (SpotID 48620): 1.10
mean group, SDCBP (SpotID 48646): 1.08
mean group, FECH (SpotID 48654): 0.98
mean group, HSPBP1 (SpotID 48693): 0.91
mean group, P4HA1 (SpotID 48707): 1.18
mean group, PPP3CB (SpotID 48717): 0.95
mean group, IKKE (SpotID 48725): 0.94
mean group, RALA (SpotID 48732): 1.06
mean group, MAFB (SpotID 48747): 0.93
mean group, KIAA0217 (SpotID 48804): 0.88
mean group, ITGAE (SpotID 48921): 0.97
mean group, PRSS25 (SpotID 49006): 1.14
mean group, TM9SF2 (SpotID 49007): 1.18
mean group, BNIP3L (SpotID 49028): 1.20
mean group, SERPINB1 (SpotID 49117): 0.88
mean group, ARTS-1 (SpotID 49155): 0.86
mean group, RRS1 (SpotID 49169): 0.93
mean group, APOE (SpotID 49233): 1.01
mean group, TNFRSF10B (SpotID 49272): 1.08
mean group, PPIB (SpotID 49314): 1.16
mean group, YWHAH (SpotID 49318): 0.97
mean group, TEB4 (SpotID 49360): 0.94
mean group, SpotID 49374 (SpotID 49374 (gene symbol not given)): 1.03
mean group, TRRAP (SpotID 49435): 0.92
mean group, SRC (SpotID 49446): 1.14
mean group, VTN (SpotID 49490): 0.94
mean group, UBC (SpotID 49514): 1.09
mean group, AP1G2 (SpotID 49524): 0.92
mean group, LOC54543 (SpotID 49577): 1.02
mean group, CSTF3 (SpotID 49606): 1.07
mean group, CLN2 (SpotID 49618): 1.12
mean group, BTN3A2 (SpotID 49673): 1.11
mean group, SERPINF1 (SpotID 49679): 1.09
mean group, CHAF1B (SpotID 49737): 0.88
mean group, AD022 (SpotID 49767): 1.10
mean group, CYC1 (SpotID 49787): 0.94
mean group, AD022 (SpotID 49800): 1.09
mean group, ATP2B4 (SpotID 49915): 1.06
mean group, RFC1 (SpotID 49947): 0.93
mean group, HIF1A (SpotID 50022): 0.93
mean group, NDUFA2 (SpotID 50050): 1.02
mean group, SCOP (SpotID 50079): 1.04
mean group, CNOT3 (SpotID 50099): 0.86
mean group, IL10RB (SpotID 50267): 1.08
mean group, IKKE (SpotID 50342): 1.08
mean group, LOC51295 (SpotID 50349): 0.84
mean group, CFL1 (SpotID 50351): 1.00
mean group, GOCAP1 (SpotID 50421): 1.10
mean group, MGP (SpotID 50511): 0.98
mean group, ARHC (SpotID 50513): 1.00
mean group, BN51T (SpotID 50584): 1.07
mean group, CKS2 (SpotID 50590): 0.89
mean group, SpotID 50591 (SpotID 50591 (gene symbol not given)): 1.13
mean group, SRP19 (SpotID 50601): 1.06
mean group, BET1 (SpotID 50645): 1.01
mean group, PRKDC (SpotID 50736): 0.92
mean group, AD022 (SpotID 50738): 1.10
